This passage reports mortality results from ChEMBL document CHEMBL3046761, “Synthesis of 27-oxo, 27-hydroxymilbemycins A3 and A4 and novel 27-alkoxymilbemycins A3 and A4 from milbemycins A3 and A4 and their acaricidal activities” (2002).

In assay [1] the test system is Tetranychus urticae. Put plainly: Acaricidal activity against Tetranychus urticae (two-spotted spider mite) infected cowpea plant assessed as mortality at 10 ppm sprayed 24 hr post-infection measured after 3 days. Format: functional.
Assay [2] concerns Tetranychus urticae. The assay is described as follows: Acaricidal activity against Tetranychus urticae (two-spotted spider mite) infected cowpea plant assessed as mortality at 1 ppm sprayed 24 hr post-infection measured after 3 days. Format: functional.

Take `CC[C@H]1O[C@]2(CC[C@@H]1C)C[C@@H]1C[C@@H](C/C=C(\C)C[C@@H](C)/C=C/C=C3\C(O)O[C@@H]4[C@H](O)C(C)=C[C@@H](C(=O)O1)[C@]34O)O2` (some centres not stated) [27-HYDROXY MILBEMYCIN A4]: the mortality at 10 ppm in the assay on Tetranychus urticae [1] was found to be 53%. Besides, in the assay on Tetranychus urticae [2], the mortality at 1 ppm turned out to be 11%.

For `CC[C@H]1O[C@]2(CC[C@@H]1C)C[C@@H]1C[C@@H](C/C=C(\C)C[C@@H](C)/C=C/C=C3\[C@@H](OC)O[C@@H]4[C@H](O)C(C)=C[C@@H](C(=O)O1)[C@]34O)O2` [27-ALPHAMETHOXY MILBEMYCIN A4], the mortality at 10 ppm in the assay with Tetranychus urticae [1] turned out to be 92%. The mortality at 1 ppm with Tetranychus urticae [2] is 17%.

Turning to `CC[C@H]1O[C@]2(CC[C@@H]1C)C[C@@H]1C[C@@H](C/C=C(\C)C[C@@H](C)/C=C/C=C3\CO[C@@H]4[C@H](O)C(C)=C[C@@H](C(=O)O1)[C@]34O)O2` [MILBEMYCIN A4], the mortality at 10 ppm in the assay with Tetranychus urticae [1] turned out to be 100%. Moreover, the mortality at 1 ppm in the assay on Tetranychus urticae [2] was found to be 32%.

Consider `CC[C@H]1O[C@]2(CC[C@@H]1C)C[C@@H]1C[C@@H](C/C=C(\C)C[C@@H](C)/C=C/C=C3\[C@H](OC(C)C)O[C@@H]4[C@H](O)C(C)=C[C@@H](C(=O)O1)[C@]34O)O2` [27-BETAISOPROPOXY MILBEMYCIN A4], for which the mortality at 10 ppm in the assay on Tetranychus urticae [1] amounted to 72%. Besides, the mortality at 1 ppm in the assay on Tetranychus urticae [2] was determined as 22%.

With `CC[C@H]1O[C@]2(CC[C@@H]1C)C[C@@H]1C[C@@H](C/C=C(\C)C[C@@H](C)/C=C/C=C3\C(=O)O[C@@H]4[C@H](O)C(C)=C[C@@H](C(=O)O1)[C@]34O)O2` [27-OXOMILBEMYCIN A4], the mortality at 10 ppm in the assay with Tetranychus urticae [1] turned out to be 11%. The mortality at 1 ppm in the assay with Tetranychus urticae [2] was found to be 4%.

For `CC[C@H]1O[C@]2(CC[C@@H]1C)C[C@@H]1C[C@@H](C/C=C(\C)C[C@@H](C)/C=C/C=C(\C=O)[C@]3(O)[C@H](O)[C@H](O)C(C)=C[C@H]3C(=O)O1)O2`, the mortality at 10 ppm with Tetranychus urticae [1] amounted to 53%. The mortality at 1 ppm with Tetranychus urticae [2] is 11%.

Take `CC[C@H]1O[C@]2(CC[C@@H]1C)C[C@@H]1C[C@@H](C/C=C(\C)C[C@@H](C)/C=C/C=C3\[C@H](OC)O[C@@H]4[C@H](O)C(C)=C[C@@H](C(=O)O1)[C@]34O)O2` [27-BETAMETHOXY MILBEMYCIN A4]: in the assay with Tetranychus urticae [1], the mortality at 10 ppm is 87%. For the same molecule, in the assay on Tetranychus urticae [2], the mortality at 1 ppm worked out at 19%.

Consider `CO[C@H]1O[C@@H]2[C@H](O)C(C)=C[C@H]3C(=O)O[C@H]4C[C@@H](C/C=C(\C)C[C@@H](C)/C=C/C=C\1[C@]23O)O[C@@]1(CC[C@H](C)[C@@H](C)O1)C4` [27-ALPHAMETHOXY MILBEMYCIN A3], for which the mortality at 10 ppm in the assay on Tetranychus urticae [1] stood at 72%. Besides, in the assay with Tetranychus urticae [2], the mortality at 1 ppm is 8%.

`CC1=C[C@H]2C(=O)O[C@H]3C[C@@H](C/C=C(\C)C[C@@H](C)/C=C/C=C(\C=O)[C@]2(O)[C@H](O)[C@@H]1O)O[C@@]1(CC[C@H](C)[C@@H](C)O1)C3`: the mortality at 10 ppm in the assay with Tetranychus urticae [1] worked out at 17%. Further, in the assay with Tetranychus urticae [2], the mortality at 1 ppm is 7%.

As to `CC1=C[C@H]2C(=O)O[C@H]3C[C@@H](C/C=C(\C)C[C@@H](C)/C=C/C=C4\C(O)O[C@H]([C@@H]1O)[C@@]42O)O[C@@]1(CC[C@H](C)[C@@H](C)O1)C3` (some centres not stated) [27-HYDROXY MILBEMYCIN A3], in the assay with Tetranychus urticae [1], the mortality at 10 ppm amounted to 17%. Also, the mortality at 1 ppm with Tetranychus urticae [2] came to 7%.

For the molecule `CC[C@H]1O[C@]2(CC[C@@H]1C)C[C@@H]1C[C@@H](C/C=C(\C)C[C@@H](C)/C=C/C=C3\[C@@H](OC(C)C)O[C@@H]4[C@H](O)C(C)=C[C@@H](C(=O)O1)[C@]34O)O2` [27-ALPHAISOPROPOXY MILBEMYCIN A4], in the assay on Tetranychus urticae [1], the mortality at 10 ppm amounted to 76%. For the same molecule, the mortality at 1 ppm in the assay with Tetranychus urticae [2] came out at 14%.

For the molecule `CO[C@@H]1O[C@@H]2[C@H](O)C(C)=C[C@H]3C(=O)O[C@H]4C[C@@H](C/C=C(\C)C[C@@H](C)/C=C/C=C\1[C@]23O)O[C@@]1(CC[C@H](C)[C@@H](C)O1)C4` [27-BETAMETHOXY MILBEMYCIN A3], in the assay on Tetranychus urticae [1], the mortality at 10 ppm amounted to 65%. In addition, the mortality at 1 ppm with Tetranychus urticae [2] worked out at 3%.

On to `CCO[C@H]1O[C@@H]2[C@H](O)C(C)=C[C@H]3C(=O)O[C@H]4C[C@@H](C/C=C(\C)C[C@@H](C)/C=C/C=C\1[C@]23O)O[C@@]1(CC[C@H](C)[C@@H](CC)O1)C4` [27-ALPHAETHOXY MILBEMYCIN A4], for which, in the assay with Tetranychus urticae [1], the mortality at 10 ppm amounted to 81%. Also, the mortality at 1 ppm in the assay with Tetranychus urticae [2] is 25%.

With `CCO[C@@H]1O[C@@H]2[C@H](O)C(C)=C[C@H]3C(=O)O[C@H]4C[C@@H](C/C=C(\C)C[C@@H](C)/C=C/C=C\1[C@]23O)O[C@@]1(CC[C@H](C)[C@@H](CC)O1)C4` [27-BETAETHOXY MILBEMYCIN A4], the mortality at 10 ppm in the assay on Tetranychus urticae [1] was found to be 77%. Also, the mortality at 1 ppm in the assay on Tetranychus urticae [2] turned out to be 0%.

For the molecule `CC1=C[C@H]2C(=O)O[C@H]3C[C@@H](C/C=C(\C)C[C@@H](C)/C=C/C=C4\CO[C@H]([C@@H]1O)[C@@]42O)O[C@@]1(CC[C@H](C)[C@@H](C)O1)C3` [MILBEMYCIN A3], in the assay with Tetranychus urticae [1], the mortality at 10 ppm worked out at 69%. The mortality at 1 ppm with Tetranychus urticae [2] was 3%.

For the molecule `CC1=C[C@H]2C(=O)O[C@H]3C[C@@H](C/C=C(\C)C[C@@H](C)/C=C/C=C4\C(=O)O[C@H]([C@@H]1O)[C@@]42O)O[C@@]1(CC[C@H](C)[C@@H](C)O1)C3` [27-OXOMILBEMYCIN A3], the mortality at 10 ppm in the assay on Tetranychus urticae [1] is 3%. The mortality at 1 ppm in the assay with Tetranychus urticae [2] was found to be 3%.

What is called mortality is the percentage killed.
